The values that follow come from US12552773B2, “Compound for specifically enhancing spatial coupling degree of TRPV4-KCa2.3 complex and use thereof” (Jiangnan University, priority 2020, dated 2026).

SMILES strings stand for the structures.

A word on the half-life: it is the time needed for the level to fall by half in the phase considered.

For series [1], the target named is T1, TRPV4-KCa2.3 complex (Mus musculus, UniProt P58391+Q9EPK8).
T1 construct: endogenous in cells
Put plainly: In vitro coupling activity test (FRET, immunostained endothelial cells). In kind it is cell-based, mice. The conditions noted are these: for Fret efficiency value (average value): endothelial cells, 10 μmol/L, 24 hours, higher value = higher degree of coupling; for coupling between the TRPV4 and the KCa2.3: high-salt state, cells incubated 24 hours, compared with JNC-440. Here is the method:
Endothelial cells were cultured for 3-5 days, separately incubated with the compounds in Examples 1, 2, 3, 4, 5 and 6 with a concentration of 10 μmol/L for 24 hours, fixed with 4% paraformaldehyde for 30 minutes, permeabilized with PBS containing 0.2% Triton X-100 for 10 minutes and blocked with PBS containing 5% BSA for 1 hour. Then, the cells were sequentially stained with TRPV4-550 as a primary antibody, KCa2.3 as a coupled secondary antibody (Life Technologies) and DAPI (Vector Laboratories, Burlingame, CA, USA). A laser confocal microscope was used for photographing, and a Fret value was calculated.
A higher value indicated a higher degree of coupling between the two proteins.
With reference to FIG. 3, the compound obtained in Example 1 was abbreviated as compound 365; the compound obtained in Example 2 was abbreviated as compound 366; the compound obtained in Example 3 was abbreviated as compound 491; the compound obtained in Example 4 was abbreviated as compound 437; the compound obtained in Example 5 was abbreviated as compound 455; and the compound obtained in Example 6 was abbreviated as compound 469. HS referred to hypertensive mice induced by a high-salt diet, and WT referred to normal wild-type mice.

The subject of series [2] is Mesenteric primary endothelial cells. Put plainly: Determination of intracellular K+ (PBFI fluorescence ratio). It is filed as cell-based. The conditions noted are these: high-salt state, 10 μmol/L, 24 hours, versus no drug. The procedure:
Mesenteric primary endothelial cells were cultured for 3-5 days and separately incubated with the compounds in Examples 4, 5 and 6 with a concentration of 10 μmol/L for 24 hours. A culture medium was removed. The cells and NPSS containing PBFI were incubated in an incubator at a ratio of 1:200 at 37° C. in a dark environment.
An Olympus fluorescence imaging system was used for measuring fluorescence with dual excitation at 340 nm and 380 nm. Changes of [K^+] were calculated as changes of a PBFI ratio.

Series [3] relates to hypertensive mice induced by a high-salt diet. In words: Effects on blood pressure of hypertensive mice in vivo (tail-cuff). The conditions noted are these: intragastric, 30 mg/kg; for Mean arterial pressure change value: maximum drop of the blood pressure. Here is the method:
The blood pressure of mice was determined by using an IITC non-invasive sphygmomanometer and a tail-cuff method. At first, the mice were trained every day for at least a week with half an hour each time. During each test, a systolic blood pressure value, a diastolic blood pressure value, a mean arterial pressure value and a heart rate could be obtained. After adaption, the mice were administered intragastrically with the compounds in Examples 4 and 5 with a dosage of 30 mg/kg, and then the blood pressure of the hypertensive mice was measured within a regular time. According to results, it was shown that after the compound in Example 4 was used, the blood pressure was reduced for only 1.5 h; and after the compound in Example 5 was used, the blood pressure could be reduced for 8 h.
(§1) According to a line chart in FIG. 4, the abscissa referred to time with h as the unit; and the ordinate referred to systolic blood pressure (SBP), mean arterial pressure (MAP) and diastolic blood pressure (DBP) with mmHg as the unit. […] According to a histogram, the ordinate referred to changes of the mean arterial pressure with mmHg as the unit. […] HS referred to the hypertensive mice induced by a high-salt diet (model mice used in in vivo experiments in this example). WT referred to normal wild-type mice. A control group Ctrl referred to model mice administered intragastrically with normal saline rather than the compounds involved in this application.
as §1, with “5,” for “4,”

Series [4] is described as follows: In vitro metabolism in liver microsomes, human. In kind it is in vitro ADME. The conditions noted are these: for In vivo inherent clearance rate: from human liver microsomes; for half-life at 0.193 µM: human, liver microsomes, pH 7.4, human liver microsomes, read-out: Half-life obtained after incubation in liver microsomes of human (converted); for microsomal CLint at 0.193 µM: pH 7.4, read-out: Inherent clearance rate in liver microsomes. The procedure:
(§2) An in vitro metabolic incubation system with a total volume of 207 μL and an organic solvent less than 1% included 188 μL of a 0.1 mol/L PBS buffer (pH 7.4) and 12 μL of an NADPH generation system (prepared by mixing 10 μL of a solution A and 2 μL of a solution B on an ice bath before use). 2 μL of the compounds in Examples 4 and 5 with a concentration of 20 μm/L were added into the incubation system on an ice bath for pre-incubation in a water bath at 37° C. for 5 minutes. Then, 5 μL of liver microsomal enzymes of different species were added on an ice bath for uniform mixing and incubation in a water bath at 37° C. 400 μl of glacial acetonitrile (containing 50 ng/ml of an internal standard (caffeine)) was separately added at 0 minute, 10 minutes, 30 minutes, 60 minutes, 90 minutes, 120 minutes, 180 minutes, 360 minutes and 480 minutes to stop a reaction, and a parallel experiment was carried out 3 times. A rotation speed was 13,000 rpm/15 min. A supernatant was taken and detected by using an ultra-high performance liquid chromatography-quadrupole time-of-flight mass spectrometer.
In general terms: Microsomes from liver hold many membrane-bound enzymes, among them those of drug oxidation.

Series [5] in a line: In vitro metabolism in liver microsomes, mouse. The conditions noted are these: for In vivo inherent clearance rate: from mouse liver microsomes; for half-life at 0.193 µM: mouse, liver microsomes, pH 7.4, mouse liver microsomes; for microsomal CLint at 0.193 µM: pH 7.4, read-out: Inherent clearance rate in liver microsomes. It is filed as in vitro ADME. The procedure: as §2
Series [6] can be described thus: In vitro metabolism in liver microsomes, rat. In kind it is in vitro ADME. Here is the method:
as §2

Series [7] in a line: In vitro metabolism in liver microsomes, dog. In kind it is in vitro ADME. The procedure: as §2
A short description of series [8]: In vitro metabolism in liver microsomes of different species (overall statement). It is filed as in vitro ADME. The conditions noted are these: for metabolism differences between species: liver microsomes of different species; for half-life at 0.193 µM: mouse, rat, human, dog (Example 4), human (Example 5), liver microsomes, pH 7.4, liver microsomes, overall over the species. Here is the method:
as §2

T1 sequence (Q9EPK8 whole entry): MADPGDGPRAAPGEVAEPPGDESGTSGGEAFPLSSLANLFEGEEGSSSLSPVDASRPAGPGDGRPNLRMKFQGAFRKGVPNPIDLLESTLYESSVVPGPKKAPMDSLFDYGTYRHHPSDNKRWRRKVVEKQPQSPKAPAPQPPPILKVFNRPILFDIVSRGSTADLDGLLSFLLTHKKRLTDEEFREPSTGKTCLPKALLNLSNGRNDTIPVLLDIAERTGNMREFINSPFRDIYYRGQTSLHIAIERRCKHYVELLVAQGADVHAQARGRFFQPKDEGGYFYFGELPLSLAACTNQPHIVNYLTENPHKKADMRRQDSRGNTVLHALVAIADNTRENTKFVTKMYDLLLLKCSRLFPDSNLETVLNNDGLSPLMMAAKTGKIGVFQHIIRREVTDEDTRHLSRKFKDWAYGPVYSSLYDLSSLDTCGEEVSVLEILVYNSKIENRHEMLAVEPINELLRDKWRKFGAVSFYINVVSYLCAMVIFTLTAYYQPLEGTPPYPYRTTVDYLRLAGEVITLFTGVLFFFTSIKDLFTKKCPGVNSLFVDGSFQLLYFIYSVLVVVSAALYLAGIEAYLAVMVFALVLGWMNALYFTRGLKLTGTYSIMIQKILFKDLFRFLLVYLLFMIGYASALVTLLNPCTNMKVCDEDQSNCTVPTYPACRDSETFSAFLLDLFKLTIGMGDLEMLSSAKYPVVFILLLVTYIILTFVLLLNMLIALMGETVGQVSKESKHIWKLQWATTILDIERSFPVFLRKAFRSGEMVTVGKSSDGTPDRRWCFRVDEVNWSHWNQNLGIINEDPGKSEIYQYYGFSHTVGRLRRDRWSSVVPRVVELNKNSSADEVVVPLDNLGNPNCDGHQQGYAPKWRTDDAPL
T1 sequence (P58391 whole entry): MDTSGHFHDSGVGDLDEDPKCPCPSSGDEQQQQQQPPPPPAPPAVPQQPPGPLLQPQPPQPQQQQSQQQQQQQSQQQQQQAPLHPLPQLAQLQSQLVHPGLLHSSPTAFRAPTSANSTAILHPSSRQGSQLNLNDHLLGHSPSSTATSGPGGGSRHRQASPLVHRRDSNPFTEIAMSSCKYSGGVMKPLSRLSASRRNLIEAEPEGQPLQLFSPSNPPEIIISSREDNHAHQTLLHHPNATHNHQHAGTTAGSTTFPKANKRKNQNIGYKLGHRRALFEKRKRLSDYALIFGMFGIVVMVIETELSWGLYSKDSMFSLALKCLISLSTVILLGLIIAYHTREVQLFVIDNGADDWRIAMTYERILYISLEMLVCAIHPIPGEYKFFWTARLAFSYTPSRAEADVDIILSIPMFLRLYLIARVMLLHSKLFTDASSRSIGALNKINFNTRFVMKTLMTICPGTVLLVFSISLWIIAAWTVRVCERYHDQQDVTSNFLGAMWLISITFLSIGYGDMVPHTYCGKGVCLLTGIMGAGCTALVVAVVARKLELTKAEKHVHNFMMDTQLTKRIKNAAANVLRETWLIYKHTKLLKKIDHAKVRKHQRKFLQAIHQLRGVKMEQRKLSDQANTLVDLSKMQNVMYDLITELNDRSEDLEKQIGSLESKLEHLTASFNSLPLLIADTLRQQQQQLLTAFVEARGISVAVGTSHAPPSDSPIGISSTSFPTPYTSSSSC

`O=C(Cc1ccncc1)NCCCNC(=O)c1nc(=O)c2ccccc2[nH]1` [Example 1, 4-oxo-N-(3-(2-(pyridin-4-yl)acetamido)propyl)-1,4-dihydroquinazoline-2-carboxamide]: in series [1], the “Fret efficiency value (average value)” value is recorded as 6.06; the “coupling between the TRPV4 and the KCa2.3” value is recorded as “enhanced”.

Regarding `O=C(NCCCNC(=O)c1nc(=O)c2ccccc2[nH]1)Nc1ccncc1` [Example 2, 4-oxo-N-(3-(3-(pyridin-4-yl)ureido)propyl)-1,4-dihydroquinazoline-2-carboxamide], in series [1], the “Fret efficiency value (average value)” value is on record as 5.98; the “coupling between the TRPV4 and the KCa2.3” value is on record as “enhanced”.

Turning to `CCN1CCN(Cc2ccc(NC(=O)NCCCNC(=O)c3nc(=O)c4ccccc4[nH]3)cc2)CC1` [Example 3], in series [1], the “Fret efficiency value (average value)” value stood at 5.62; the “coupling between the TRPV4 and the KCa2.3” value was “enhanced”.

On to `CCN1CCN(Cc2ccc(NC(=O)NCCCCC(=O)Nc3ccccc3)cc2)CC1` [Example 4, 5-(3-(4-((4-ethylpiperazin-1-yl)methyl)phenyl)ureido)-N-phenylpentaneamide], for which, in series [1], the “Fret efficiency value (average value)” value is given as 8.15. For the same compound, the “coupling between the TRPV4 and the KCa2.3” value in series [1] is reported as “enhanced”. For the same compound, in series [2], the “outflow ability of the intracellular potassium ions (changes of [K+])” value (from here on “outflow ability … (changes of [K+])”) was “significantly improved”. In series [3], the “time for which the blood pressure was reduced” value is listed as 1.5 h. In series [3], the “Mean arterial pressure change value” is 16 mmHg. The “In vivo inherent clearance rate” value in series [4] is on record as 9.43 ml · ^1min · kg^−1; in series [5] it was 40.21 ml · ^1min · kg^−1; in series [6] (from rat liver microsomes) it was 15.07 ml · ^1min · kg^−1; in series [7] (from dog liver microsomes) it was 15.91 ml · ^1min · kg^−1. The half-life at 0.193 µM in series [4] (37° C., NADPH) is 2.44 h; in series [5], 2.34 h; in series [6] (pH 7.4, rat liver microsomes), 2.85 h; in series [7] (pH 7.4, dog liver microsomes), 2.23 h; in series [8], roughly 2.5 h. For the same compound, the microsomal CLint at 0.193 µM was 9.5 µL/min/mg in series [4] (human liver microsomes); 10 µL/min/mg in series [5] (mouse liver microsomes); 8.4 µL/min/mg in series [6] (pH 7.4, rat liver microsomes, read-out: Inherent clearance rate in liver microsomes); 11 µL/min/mg in series [7] (pH 7.4, dog liver microsomes, read-out: Inherent clearance rate in liver microsomes). Besides, the “metabolism differences between species” value in series [8] was “no metabolism differences between species”.

`CCN1CCN(Cc2ccc(NC(=O)NCCCCC(=O)Nc3ccc(F)cc3)cc2)CC1` [Example 5, 5-(3-(4-((4-ethylpiperazin-1-yl)methyl)phenyl)ureido)-N-(4-fluorophenyl)pentaneamide]: in series [1], the “Fret efficiency value (average value)” value is on record as 7.68; the “coupling between the TRPV4 and the KCa2.3” value is recorded as “enhanced”. Also, in series [2], the “outflow ability … (changes of [K+])” value is “significantly improved”. For the same compound, in series [3], the “time for which the blood pressure was reduced” value is given as 8 h and the “Mean arterial pressure change value” is listed as 38 mmHg. Moreover, the “In vivo inherent clearance rate” value in series [4] stood at 22.326 ml · ^1min · kg^−1. The “Half-life obtained after incubation in liver microsomes of human” value in series [4] (human liver microsomes, 37° C., NADPH) is on record as 4.23 h. Besides, the half-life at 0.193 µM in series [4] (37° C., NADPH) is 3.35 h. Also, the microsomal CLint at 0.193 µM in series [4] (human liver microsomes) is 5.7 µL/min/mg. In series [5], the “In vivo inherent clearance rate” value was 7.065 ml · ^1min · kg^−1 and the half-life at 0.193 µM is 4.23 h. In series [5] (mouse liver microsomes), the “Half-life in liver microsomes” value is given as 3.35 h and the microsomal CLint at 0.193 µM worked out at 7.1 µL/min/mg. In series [8], the “metabolism differences between species” value is recorded as “no metabolism differences between species” and the half-life at 0.193 µM is 4 ± 0.5 h.

For the compound `CCN1CCN(Cc2ccc(NC(=O)NCCCCCNC(=O)c3ccc(F)cc3)cc2)CC1` [Example 6], in series [1], the “Fret efficiency value (average value)” value is reported as 7.98; the “coupling between the TRPV4 and the KCa2.3” value was “enhanced”. The “outflow ability … (changes of [K+])” value in series [2] is “significantly improved”.

As for `O=C(NCCCNC(=O)C(c1ccccc1)c1ccccc1)c1nc(=O)c2ccccc2[nH]1` [JNC-440, reference compound], the “Fret efficiency value (average value)” value in series [1] is given as 5.02. In addition, the “Mean arterial pressure change value” in series [3] is reported as 10 mmHg. In series [4] (37° C., NADPH), the half-life at 0.193 µM was 0.813 h.
